# What was measured:
# [1] = test system: Tetranychus urticae; assay: Potter Tower spray on mite-infested leaves (Table 19); type: in vivo, mites (Tetranychus urticae); details: mortality after 24 hours
# Description: Leaves already infested with mites (Tetranychus urticae) were sprayed under Potter Tower. Mortality after 24 hours on the treated leaves was compared with the control.
# [2] = test system: L. decemlineata; assay: 5 EC formulation sprayed on glass plates (Table 9); type: in vivo, Colorado beetle (L. decemlineata), imagos; details: 48 hours
# Description: (§1) From a 5 EC formulation according to Example 17 50-, 100-, 200-, 400-, 800- and 1600-fold diluted emulsions are prepared by diluting with water. 0.5 ml of the emulsions are sprayed onto glass plates whereupon after drying 10 Colorado beetles (L. decemlineata) imagos are placed on each glass plate and the insects are covered. The tests are carried out with 6 doses by carrying out 3 parallels for each dose. The killed insects are counted after 48 hours and the percental mortality rate is calculated.
# [3] = test system: L. decemlineata; assay: 5 EC formulations sprayed on glass plates (Table 20); type: in vivo, imagos; details: 5 EC formulation, 48 hours
# Description: (§2) The 5 EC formulations prepared according to Example 42 are diluted 50x, 100x, 200x, 400x, 800x and 1600x with water and 0.5 ml doses are sprayed onto glass plates. After drying 10 L. decemlineata imagos are placed on each glass plate and the insects are covered with Petri-dishes. The tests are carried out by using 6 doses and 3 parallels for each dose. The killed insects are counted after 48 hours.
# [4] = test system: Acanthoscelides obtectus; assay: 5 EC formulation, insecticidal effect on bean weevil (Table 10); type: in vivo, bean weevil (Acanthoscelides obtectus), imagos; details: 24 hours
# Description: as §1
# The insecticidal effect is tested on been weevil (Acanthoscelides obtectus) imagos. The killed insects are counted after 24 hours and the percental mortality rate is calculated.
# [5] = test system: Colorado potato beetle; assay: Topical test on Colorado potato beetle (Table 14); type: in vivo, Colorado potato beetle (Leptinotersa decemlineata), imago
# Description: In Table 14 the activity on Colorado potato beetle is shown.
# The test materials are dissolved in 2-ethoxyethanol (Cellosolve). One 0.3 μl drop of the solution is applied to the abdominal sterna of the imago. The treatment is carried out by using 2 parallels and 10 insects for each dose. […]
# [6] = test system: Acanthoscelides obtectus; assay: 5 EC formulations sprayed on glass plates (Table 21); type: in vivo, bean weevil (Acanthoscelides obtectus), imagos; details: 5 EC formulation, 24 hours
# Description: as §2
# Glass plates are sprayed with 5 EC formulations prepared according to Example 42 in an analogous manner to Example 52. After drying 10 bean weevil (Acanthoscelides obtectus) imagos are placed on each plate and the insects are covered with Petri-dishes. The killed insects are counted after 24 hours. The test is carried out with 6 doses by using 3 parallels for each dose.
# [7] = test system: Hyphantria cunea; assay: Topical test on fall webworm (Table 8); type: in vivo, L7-L8 larvae; details: 24 h
# Description: (§3) The active ingredients are dissolved in 2-ethoxyethanol and the solutions are applied in the form of 0.2 μl droplets onto the back of fall webworm (Hyphantria cunea) of L7 -L8 larvae stage. The treated worms are placed on strawberry leaves in Petri-dishes. The test is carried out by using 5 doses; 2 parallels and 10 insects for each dose.
# [8] = test system: Leptinotarsa decemlineata; assay: Topical test on potato beetle (Table 6); type: in vivo, imagos; details: 24 h
# Description: The active ingredients are dissolved in 2-ethoxyethanol and […] of the solutions are applied onto the abdominal sterna of potato beetle (Leptinotarsa decemlineata) imagos. The treatments are carried out by using two parallels and 10 insects for each dose. […]
# [9] = test system: Hyphantria cunea; assay: Topical test on fall webworm (Table 18); type: in vivo, fall wetworm (Hyphantria cunea), L7-L8 larvae
# Description: as §3, with “2-ethoxy-ethanol” for “2-ethoxyethanol”, “wetworm” for “webworm”, “[…],” for “5 doses;”, “dose. The killed worms are counted after 24 hours and the percental mortality rate is calculated.” for “dose.”
# [10] = test system: Musca domestica; details: mixture activity lower than the calculated value; cited from earlier work
# [11] = test system: Phaedon cochleariae; details: mixture activity lower than the calculated value; cited from earlier work
# [12] = test system: Colorado potato beetle; assay: Plot field test on Colorado potato beetle (Table 24); type: in vivo, adults; details: 10 g active ingredients/ha
# Description: The treatments are performed on a 25 m^2 plot strongly infected with Colorado potato beetle. 10 plants per plot are specially marked on which the Colorado potato beetles were counted previously. (During assessment of the number of pests only adults of the second Summer generation are taken into consideration, because at the point of time of the test the ratio of larvae of stages L3 and L4 is negligible). Treatment is accomplished on 25 M^2 plots at a dose of 10 g of active ingredients/ha with aqueous suspensions of the formulations according to Example 37 and three parallels are used. The test is evaluated by counting the leave insects on the marked plants. The average values of three parallel tests are disclosed in Table 24.
# [13] = test system: A. matricariae; assay: Direct contact test of pupae (Table 5); type: in vivo
# Description: Mature pupae of A. matricariae on paprika leaves in Petri dishes are exposed to a direct spray of the active ingredients.
# Two or three days before emergence paprika leaves with parasitized pupae are used. The leaves are laid on filter paper in a plastic Petri dish The filter paper is moistened.
# Application of treatment: See Example 23.
# The pieces of leaf are transferred after treatment to clean Petri dish bottoms The trays are stored in a clinic chamber at 20° C. temperature, 70% relative humidity and a light-dark cycle of […]. Surviving pupae hatch after 2-3 days. The numbers of hatched and dead pupae are counted.
# [14] = test system: Aphidinus matricariae; assay: Residual contact test on adults (Table 25); type: in vivo, adult females
# Description: Residual contact test on adults of Aphidinus matricariae. Adults of A. matricariae are exposed to residues of the active ingredients freshly applied on glass plates forming cages, then the survivors are counted.
# Treatment: test product and control treated with water.
# Replicates: at least 3. Plot size (net): 1 cage.
# Parasites of known age (24 hours) are used. […]
# 10 females of A. matricariae are introduced into each cage and supplied with honey as food. The number of females surviving exposure is determined after 1, 5 and 24 hours, in independent runs. Total number of survivors is calculate for each cage.
# [15] = test system: A. matricariae; assay: Direct contact test on pupae (Table 26); type: in vivo
# Description: Mature pupae of A. matricariae on paprika leaves in Petri-dishes are exposed to a direct spray of the active ingredients. Two or three days before emergence paprika leaves with parasitized pupae are used. The leaves are laid on moistened filter paper in a plastic Petri-dish.
# Application of treatment: See Example 57.
# The pieces of leaf are transferred after treatment to clean Petri-dish bottoms. The trays are stored in a climatic chamber at 20° C. temperature, 70% relative humidity and a light-dark cycle of 16-8 h. Surviving pupae hatch after 2-3 days. The numbers of hatched and dead pupae are counted.
# [16] = test system: Myzus persicae; assay: 5 EC formulations on aphid-infected bean plants (Table 22); type: in vivo, green peach aphids (Myzus persicae)
# Description: 15 bean plants infected with green peach aphids (Myzus persicae) at 6 days' age are cultivated in each pot. At 12 days' age the strongly and uniformly infected plants are selected and sprayed to run-off with emulsions freshly prepared from the formulation according to Example 42. Treatments are carried out with three doses (active ingredient 2.5, 5 and 10 ppm) and four parallels are used (one pot per parallel). The second, fourth and eighth day after treatment the aphids are swept down from the plants to a white paper with a fine brush and the live insects are counted.
compound,measurement,setting,value
CC1(C)C(C=C(Cl)Cl)C1C(=O)OC(C#N)c1cccc(Oc2ccccc2)c1 (stereo not drawn) [cypermethrin],approx. LD50,[1]; 1440 min,~0.120 ppm
same,Mortality %,[2]; dilution 50x,83%
same,Mortality %,[2]; dilution 100x,67%
same,Mortality %,[2]; dilution 200x,50%
same,Mortality %,[2]; dilution 400x,33%
same,Mortality %,[2]; dilution 800x,17%
same,Mortality %,[2]; dilution 1600x,0%
same,Mortality %,"[3]; dilution 50x, 2880 min",83%
same,Mortality %,"[3]; dilution 100x, 2880 min",67%
same,Mortality %,"[3]; dilution 200x, 2880 min",50%
same,Mortality %,"[3]; dilution 400x, 2880 min",33%
same,Mortality %,"[3]; dilution 800x, 2880 min",17%
same,Mortality %,[3]; dilution 1600x,0%
same,Mortality %,[4]; dilution 50x,60%
same,Mortality %,[4]; dilution 100x,43%
same,Mortality %,[4]; dilution 200x,20%
same,Mortality %,[4]; dilution 400x,10%
same,Mortality %,[4]; dilution 800x,3%
same,Mortality %,[4]; dilution 1600x,0%
same,24 hours' mortality %,[5]; 0.05 μg/beetle,0%
same,24 hours' mortality %,[5]; 0.10 μg/beetle,20%
same,24 hours' mortality %,[5]; 0.20 μg/beetle,45%
same,24 hours' mortality %,[5]; 0.40 μg/beetle,75%
same,Mortality %,"[6]; dilution 50x, 1440 min",60%
same,Mortality %,"[6]; dilution 100x, 1440 min",45%
same,Mortality %,"[6]; dilution 200x, 1440 min",20%
same,Mortality %,"[6]; dilution 400x, 1440 min",10%
same,Mortality %,"[6]; dilution 800x, 1440 min",3%
same,Mortality %,"[6]; dilution 1600x, 1440 min",0%
same,mortality at 0.023 µg/larva,[7]; 0.023 μg/larvae,0%
same,mortality at 0.047 µg/larva,[7]; 0.047 μg/larvae,0%
same,mortality at 0.094 µg/larva,[7]; 0.094 μg/larvae,25%
same,mortality at 0.188 µg/larva,[7]; 0.188 μg/larvae,50%
same,mortality at 0.375 µg/larva,[7]; 0.375 μg/larvae,75%
same,mortality at 0.05 µg/insect,[8]; 0.05 μg/insect,0%
same,mortality at 0.1 µg/insect,[8]; 0.10 μg/insect,20%
same,mortality at 0.2 µg/insect,[8]; 0.20 μg/insect,45%
same,mortality at 0.4 µg/insect,[8]; 0.40 μg/insect,75%
same,24 hours' mortality,"[9]; 0.023 (μg/disc), 1440 min",0%
same,24 hours' mortality,"[9]; 0.047 (μg/disc), 1440 min",10%
same,24 hours' mortality,"[9]; 0.094 (μg/disc), 1440 min",25%
same,24 hours' mortality,"[9]; 0.188 (μg/disc), 1440 min",50%
same,24 hours' mortality,[9]; 0.375 (μg/disc),75%
CC1(C)[C@H](C=C(Cl)Cl)[C@H]1C(=O)OC(C#N)c1cccc(Oc2ccccc2)c1 (mixture of isomers) [mixture of both tested isomers],rate of antagonism,[10],1.42
same,rate of antagonism,[11],1.46
CC1(C)[C@H](C(=O)O[C@H](C#N)c2cccc(Oc3ccccc3)c2)[C@@H]1C=C(Br)Br [deltamethrin],LC50,"[1]; Tetranychus urticae, 24 h, read-out: approx. LD50",~0.185 µg/mL
same,Average number of live insects/10 plants,[12]; 0 days after treatment (control 211),181
same,Average number of live insects/10 plants,[12]; 1 day after treatment (control 206),7
same,Average number of live insects/10 plants,[12]; 3 days after treatment (control 179),10
same,Average number of live insects/10 plants,[12]; 9 days after treatment (control 183),19
same,Mortality %,[3]; dilution 50x,100%
same,Mortality %,[3]; dilution 100x,83%
same,Mortality %,[3]; dilution 200x,67%
same,Mortality %,[3]; dilution 400x,53%
same,Mortality %,[3]; dilution 800x,35%
same,Mortality %,[3]; dilution 1600x,7%
same,Mortality %,[13]; 1 ppm,0%
same,Mortality %,[13]; 5 ppm,0%
same,Mortality %,[13]; 10 ppm,33.0%
same,Mortality %,[13]; 30 ppm,75.0%
same,mortality at 0.05 µg/beetle,"[5]; Leptinotarsa decemlineata, topical, read-out: 24 hours' mortality %, 0.05 μg/beetle",45%
same,mortality at 0.1 µg/beetle,"[5]; Leptinotarsa decemlineata, topical, read-out: 24 hours' mortality %, 0.10 μg/beetle",60%
same,mortality at 0.2 µg/beetle,"[5]; Leptinotarsa decemlineata, topical, read-out: 24 hours' mortality %, 0.20 μg/beetle",75%
same,mortality at 0.4 µg/beetle,"[5]; Leptinotarsa decemlineata, topical, read-out: 24 hours' mortality %, 0.40 μg/beetle",85%
same,Mortality %,"[14]; 1 ppm, 1h",20%
same,Mortality %,"[14]; 1 ppm, 5h",100%
same,Mortality %,"[14]; 1 ppm, 24h",85%
same,Mortality %,"[14]; 5 ppm, 1h",100%
same,Mortality %,[6]; dilution 50x,75%
same,Mortality %,[6]; dilution 100x,57%
same,Mortality %,[6]; dilution 200x,37%
same,Mortality %,[6]; dilution 400x,20%
same,Mortality %,[6]; dilution 800x,13%
same,Mortality %,[6]; dilution 1600x,7%
same,Mortality %,[15]; 1 ppm,0%
same,Mortality %,[15]; 5 ppm,0%
same,Mortality %,[15]; 10 ppm,33.0%
same,Mortality %,[15]; 33 ppm,75.0%
same,Average number of aphids per pot,"[16]; 2.5 ppm, 2 days after treatment (control 1850)",26
same,Average number of aphids per pot,"[16]; 2.5 ppm, 4 days after treatment (control 2780)",47
same,Average number of aphids per pot,"[16]; 2.5 ppm, 8 days after treatment (control 4120)",137
same,Average number of aphids per pot,"[16]; 5.0 ppm, 2 days after treatment (control 1850)",13
same,Average number of aphids per pot,"[16]; 5.0 ppm, 4 days after treatment (control 2780)",19
same,Average number of aphids per pot,"[16]; 5.0 ppm, 8 days after treatment (control 4120)",29
same,Average number of aphids per pot,"[16]; 10.0 ppm, 2 days after treatment (control 1850)",6
same,Average number of aphids per pot,"[16]; 10.0 ppm, 4 days after treatment (control 2780)",11
same,Average number of aphids per pot,"[16]; 10.0 ppm, 8 days after treatment (control 4120)",23
